A short description of data set [1]: Histological analysis of skin samples. The class given is in vivo, Yorkshire pigs. As to conditions: pig.
The conditions of data set [2]: cited from earlier work.
Data set [3] in a line: Plasma T-20 concentration and pharmacokinetics in porcine model. The data set is classed as in vivo, Yorkshire pigs. The settings on record: Yorkshire, pig, sc, 90 mg.
Setting [4] is: T-20 subcutaneous injection twice daily 29 days, n=12.

Where two headings read alike, the source gives them in different places.

Usually AUC(0-inf) stands for total exposure, with the tail of the curve extrapolated. Higher therefore signals high exposure. The half-life is the time needed for the level to fall by half in the phase considered. Regarding enfuvirtide, in data set [1] (in vivo), the “Skin irritation: Major, number of Subjects” value is recorded as 1; the “Skin irritation: Minor, number of Subjects” value was 4; the “Skin irritation: None, number of Subjects” value came out at 7; the “Skin irritation: Similar to Eczema, number of Subjects” value is 1. Moreover, in data set [1] (in vivo, sc), the “Skin irritation: Major+ Necrosis, number of Subjects” value is recorded as 3. For the same substance, in data set [1] (setting [4]), the “Skin irritation: Major, number of Subjects” value was 3; the “Skin irritation: Minor, number of Subjects” value is listed as 3; the “Skin irritation: None, number of Subjects” value is recorded as 2; the “Skin irritation: Similar to Eczema, number of Subjects” value came to 1. In addition, in data set [2] (human, in vivo), the “AUC∞” value is recorded as 55.8 (22%) μg·h/mL, the Cmax was 4.59 (32%) μg/mL, the “Tmax humans (median)” value was 6.9 h and the “Tmax humans (range)” value is 3 to 12 h. In data set [2] (human, in vivo), the tmax is 6.92 (36%) h and the t½ is on record as 3.80 (15%) h. Also, the “typical human plasma Ctrough” value in data set [2] (human, ref Usa, 2012) is 3300 ± 1600 ng/mL. Moreover, the CI in data set [2] (in vivo) is given as 1.68 (22%) L/h. For the same substance, in data set [3], the AUC(0-inf) came out at 43300 ng·h/mL, the Cmax is 6310 ng/mL, the half-life was 3.97 h and the tmax came to 2.5 h.

Source of the values: publication PMC6476176 (Ultrasound in medicine & biology, 2018).
